{
  "source": "patent US5525634A",
  "about": "“Colonic drug delivery system” (priority 1994, dated 1996)",
  "origin": "cited, not measured here",
  "key": {"[1]": {"details": "small intestinal mucosa / esterases"}, "[2]": {"test_system": "morphine-dependent rats", "details": "for time to diarrhea: direct colonic administration; for time to diarrhea / time to diarrhea, withdrawal behavior and tail skin temperature response: morphine-dependent rats; for time to diarrhea, withdrawal behavior and tail skin temperature response: oral administration"}},
  "data": [
    {"smiles": "CC(=O)Oc1ccc(C(c2ccc(OC(C)=O)cc2)c2ccccn2)cc1", "note": "[bisacodyl]", "values": [
      {"measurement": "passage through / cleavage in the small intestine", "setting": "[1]", "result": "readily cleaved by the esterases in the small intestine"}
    ]},
    {"smiles": "C=C1CCC2(O)C3Cc4ccc(OC5OC(C(=O)O)C(O)C(O)C5O)c5c4C2(CCN3CC2CC2)C1O5", "note": "(stereo not shown) [nalmefene glucuronide]", "values": [
      {"measurement": "time to diarrhea", "setting": "[2]", "result": "5 to 8", "unit": "min"},
      {"measurement": "activity on subcutaneous administration", "setting": "[2]", "result": "inactive"}
    ]},
    {"smiles": "C=C1CC[C@@]2(O)[C@H]3Cc4ccc(O)c5c4[C@@]2(CCN3CC2CC2)[C@H]1O5", "note": "[nalmefene]", "values": [
      {"measurement": "time to diarrhea, withdrawal behavior and tail skin temperature response", "setting": "[2]", "result": "≤ 15", "unit": "min"}
    ]},
    {"smiles": "C=CCN1CC[C@]23c4c5ccc(O[C@@H]6O[C@H](C(=O)O)[C@@H](O)[C@H](O)[C@H]6O)c4O[C@H]2C(=O)CC[C@@]3(O)[C@H]1C5", "note": "[naloxone glucuronide]", "values": [
      {"measurement": "time to diarrhea", "setting": "[2]", "result": "5 to 8", "unit": "min"},
      {"measurement": "activity on subcutaneous administration", "setting": "[2]", "result": "inactive"}
    ]},
    {"smiles": "C=CCN1CC[C@]23c4c5ccc(O)c4O[C@H]2C(=O)CC[C@@]3(O)[C@H]1C5", "note": "[naloxone]", "values": [
      {"measurement": "time to diarrhea, withdrawal behavior and tail skin temperature response", "setting": "[2]", "result": "≤ 15", "unit": "min"}
    ]}
  ]
}
